Experimental data taken from patent US20100098690A1, “PHARMACEUTICAL COMPOSITION” (KYOWA HAKKO KIRIN CO., LTD., priority 2007, published 2010).

Columns and labels:
[1] = system: human multiple myeloma NCI-H929 cells; experiment: Antitumor effect in a mouse model transplanted with human multiple myeloma NCI-H929 cells (combination with bortezomib); type: in vivo, Fox C.B-17/Icr-scidJcl mice; settings: day 14; test compound 50 mg/kg i.v. and bortezomib 1 mg/kg i.v., once a day on days 0, 3, 7 and 10
[2] = system: human multiple myeloma cell line (NCI-H929); experiment: In vitro cell growth inhibition assay (WST-1) with isobologram analysis of combination effect; type: cell-based; settings: combined with the test compound (hydrochloride of Compound 22), 72 hours, isobologram method
Experimental: (§1) Measurement of the cell growth inhibition rate of the test compound and a combined compound on a human multiple myeloma cell line (NCI-H929), a human non-small-cell lung cancer cell line (PC-9), a human breast cancer cell line (BT-474), a human renal cancer cell line (VMRC-RCZ), a human chronic myeloid leukemia cell line (K-562) and a human acute myeloid leukemia cell line (MOLM-13) was carried out in the following manner.
(§2) For the culture of NCI-H929, Roswell Park Memorial Institute's Medium (RPMI) 1640 medium (Invitrogen) containing 10% fetal calf serum (FCS, Invitrogen), 10 mmol/L HEPES (Invitrogen), 1 mmol/L sodium pyruvate (Invitrogen), 4.5 g/L glucose (Sigma-Aldrich) and 50 μmol/L 2-mercaptoethanol (Invitrogen) was used. For the culture of PC-9, RPMI1640 medium containing 10% FCS was used. For the culture of BT-474, Dulbecco's Modified Eagle Medium (DMEM) (Invitrogen) containing 10% FCS, 1 mmol/L sodium pyruvate, 1.2 mmol/L oxalacetic acid (Sigma-Aldrich), 0.01 mg/mL insulin (Sigma-Aldrich), 10% NCTC-135 medium (Sigma-Aldrich), 4 mmol/L L-glutamine (Invitrogen), 1.5 g/L sodium hydrogencarbonate (Invitrogen) and 4.5 g/L glucose was used.
(§3) NCI-H929 cells were suspended to 12.5×10^4 cells/mL with culture medium (PC-9, 0.625×10^4 cells/mL; BT-474, 12.5×10^4 cells/mL; VMRC-RCZ, 2.5×10^4 cells/mL; MOLM-13, 12.5×10^4 cells/mL; K-562, 6.25×10^4 cells/mL), and the cell suspensions were seeded to the wells of 96-well U-bottom plates (Nalge Nunc International) in an amount of 80 μL/well, followed by incubation in a 5% CO2 incubator at 37° C. for 5 hours (PC-9, BT-474 and VMRC-RCZ, 24 hours; MOLM-13 and K-562, 4 hours).
(§4) The solutions of the test compound and the combined compound diluted with culture medium were added to the plates in an amount of 10 μL/well, respectively, followed by further incubation in a 5% CO2 incubator at 37° C. for 72 hours. WST-1 reagent {4-[3-(4-iodophenyl)-2-(4-nitrophenyl)-2H-5-tetrazolio]-1,3-benzene disulfonate sodium salt} (Roche Diagnostics) was added to the wells in an amount of 10 μL/well and the plates were incubated in a CO2 incubator for 2 hours at 37° C. The absorbance at 450 nm (control wavelength: 655 nm) was measured using a microplate spectrophotometer SPECTRA max 340PC (Molecular Devices). Separately, the solvent used for preparation of each compound solution alone was added to the wells, and the absorbance was measured in the same manner as above after 72-hour incubation carried out in the same manner as above and also immediately after the addition of the solvent. The cell growth inhibition rate on the cells in the compound-added groups (groups treated with the test compound alone, the combined compound alone, or both compounds) was calculated according to the following equation.
(§5) The combined effect was analyzed using the isobologram method [International Journal of Radiation Oncology, Biology, Physics, Vol. 5, p. 85 (1979)]. Judgment of the efficacy of combination therapy was carried out according to the method described in International Journal of Radiation Oncology, Biology, Physics, Vol. 5, p. 85 (1979), Ibid., Vol. 5, p. 1145 (1979), etc.

[3] = system: human acute myeloid leukemia cell line (MOLM-13); experiment: as above; type: cell-based; settings: combined with the test compound (hydrochloride of Compound 22), 72 hours, isobologram method
Experimental: as §1
(§6) For the culture of VMRC-RCZ, Minimum Essential Medium (MEM) (Invitrogen) containing 10% FCS, 0.1 mmol/L Non-Essential Amino Acids (NEAA, Invitrogen), 4 mmol/L HEPES, 2 mmol/L L-glutamine and 1.5 g/L sodium hydrogencarbonate was used. For the culture of K-562, Iscove's Modified Dulbecco's Medium (IMDM) (Invitrogen) containing 10% FCS was used. For the culture of MOLM-13, RPMI1640 medium containing 10% FCS was used.
as §3, with “hours). […]” for “hours).”

[4] = system: human non-small-cell lung cancer cell line (PC-9); experiment: as above; type: cell-based; settings: combined with the test compound (hydrochloride of Compound 22), 72 hours, isobologram method
Experimental: as §1, §2, §3, §4, §5

[5] = system: human lung cancer NCI-H596 cells; experiment: Antitumor effect in a mouse model transplanted with human lung cancer NCI-H596 cells; type: in vivo, BALB/cAJcl-nu mice; settings: day 11; test compound 100 mg/kg i.v. twice a day x 5 days; gefitinib 100 mg/kg oral once a day x 5 days
Experimental: NCI-H596 cells were cultured in RPMI1640 medium containing 10% fetal calf serum (FCS) in a 5% CO2 incubator at 37° C. and then transplanted into the abdominal subcutaneous tissue of BALB/cAJcl-nu mice (Clea Japan, Inc.) in an amount of 1×10^7 cells/mouse. From the mice in which tumor grew, the tumor was excised and the tumor tissue was cut into ca. 8 mm^3 tissue pieces and then transplanted into the abdominal subcutaneous tissue of BALB/cAJcl-nu mice (Clea Japan, Inc.) using a trocar. Seventeen days after the transplantation, the longer diameter and shorter diameter of the subcutaneous tumor were measured with slide calipers, and the tumor volume was calculated according to the following equation.
(§7) At the same time, the body weight of each mouse was measured, and the mice were divided into the following groups of 5 mice each so that the mean tumor volume and the mean body weight become uniform. The day was defined as day 0 of the administration test, and administration was started.
(§8) The test compound was dissolved in physiological saline (Otsuka Pharmaceutical Co., Ltd.) at a concentration of 10 mg/mL and intravenously administered from the caudal vein in a dose of 0.01 mL/g body weight of mouse (100 mg/kg) twice a day for consecutive days from day 0 to day 4. […]

[6] = system: human chronic myeloid leukemia cell line (K-562); experiment: In vitro cell growth inhibition assay (WST-1) with isobologram analysis of combination effect; type: cell-based; settings: combined with the test compound (hydrochloride of Compound 22), 72 hours, isobologram method
Experimental: as §1, §6
as §3, with “hours). […]” for “hours).”

[7] = system: human breast cancer cell line (BT-474); experiment: as above; type: cell-based; settings: combined with the test compound (hydrochloride of Compound 22), 72 hours, isobologram method
Experimental: as §1, §3
The solutions of the test compound and the combined compound diluted with culture medium were added to the plates in an amount of 10 μL/well, respectively, followed by further incubation in a 5% CO2 incubator at 37° C. for 72 hours. WST-1 reagent {4-[3-(4-iodophenyl)-2-(4-nitrophenyl)-2H-5-tetrazolio]-1,3-benzene disulfonate sodium salt} (Roche Diagnostics) was added to the wells in an amount of 10 μL/well and the plates were incubated in a CO2 incubator for 2 hours at 37° C.

[8] = system: human multiple myeloma NCI-H929 cells; experiment: Antitumor effect in a mouse model transplanted with human multiple myeloma NCI-H929 cells (combination with melphalan); type: in vivo, Fox C.B-17/Icr-scidJcl mice; settings: day 14; test compound 50 mg/kg i.v. on days 0, 3, 7 and 10; melphalan 4 mg/kg i.v. on day 0
Experimental: On the day before the transplantation of cancer cells, 0.3 mg/mouse of an anti-asialo GM1 antibody (ca. 10 mg protein/1 mL vial) (Wako Pure Chemical Industries, Ltd.) was intraperitoneally administered to Fox C.B-17/Icr-scidJcl mice (Clea Japan, Inc.). NCI-H929 cells were cultured in RPMI1640 medium containing 10% fetal calf serum (FCS) in a 5% CO2 incubator at 37° C. and then transplanted into the abdominal subcutaneous tissue of the mice in an amount of 1×10^7 cells/mouse.
The day was defined as day 0 of the administration test, and administration was started.
The test compound was dissolved in physiological saline (Otsuka Pharmaceutical Co., Ltd.) at a concentration of 5 mg/mL and intravenously administered from the caudal vein in a dose of 0.01 mL/g body weight of mouse (50 mg/kg) once a day on days 0, 3, 7 and 10.
Melphalan was suspended in physiological saline (Otsuka Pharmaceutical Co., Ltd.) at a concentration of 0.4 mg/mL and intravenously administered from the caudal vein in a dose of 0.01 mL/g body weight of mouse (4 mg/kg) once a day on day 0. • A. Negative control group (Control): neither test compound nor melphalan administered • B. Test compound alone group: 50 mg/kg (once a day/administered on days 0, 3, 7 and 10) • C. […]
On and after day 0, the tumor volume was measured twice a week. […]

[9] = system: human breast cancer KPL-4 cells; experiment: Antitumor effect in a mouse model transplanted with human breast cancer KPL-4 cells; type: in vivo, BALB/cAJcl-nu mice; settings: day 10; test compound 100 mg/kg i.v. twice a day x 5 days; paclitaxel 25 mg/kg i.v. days 0 and 3; trastuzumab 50 mg/kg i.v. days 0, 3, 7, 10, 14 and 17
Experimental: KPL-4 cells were cultured in DMEM containing 10% fetal calf serum (FCS) in a 5% CO2 incubator at 37° C. and then transplanted into the abdominal subcutaneous tissue of BALB/cAJcl-nu mice (Clea Japan, Inc.) in an amount of 1×10^7 cells/mouse. From the mice in which tumor grew, the tumor was excised and the tumor tissue was cut into ca. 8 mm^3 tissue pieces and then transplanted into the abdominal subcutaneous tissue of BALB/cAJcl-nu mice (Clea Japan, Inc.) using a trocar. Eighteen days after the transplantation, the longer diameter and shorter diameter of the subcutaneous tumor were measured with slide calipers, and the tumor volume was calculated according to the following equation.
as §7, §8

[10] = system: human renal cancer cell line (VMRC-RCZ); experiment: In vitro cell growth inhibition assay (WST-1) with isobologram analysis of combination effect; type: cell-based; settings: combined with the test compound (hydrochloride of Compound 22), 72 hours, isobologram method
Experimental: as §1
For the culture of VMRC-RCZ, Minimum Essential Medium (MEM) (Invitrogen) containing 10% FCS, 0.1 mmol/L Non-Essential Amino Acids (NEAA, Invitrogen), 4 mmol/L HEPES, 2 mmol/L L-glutamine and 1.5 g/L sodium hydrogencarbonate was used. […]
The solutions of the test compound and the combined compound diluted with culture medium were added to the plates in an amount of 10 μL/well, respectively, followed by further incubation in a 5% CO2 incubator at 37° C. for 72 hours. […] The absorbance at 450 nm (control wavelength: 655 nm) was measured using a microplate spectrophotometer SPECTRA max 340PC (Molecular Devices). Separately, the solvent used for preparation of each compound solution alone was added to the wells, and the absorbance was measured in the same manner as above after 72-hour incubation carried out in the same manner as above and also immediately after the addition of the solvent. […]

Row | SMILES | Combination effect of test compound and each compound [2] | Combination effect of test compound and each compound [4] | other results
1 | CC(C)C[C@H](NC(=O)[C@H](Cc1ccccc1)NC(=O)c1cnccn1)B(O)O [Bortezomib, bortezomib] | Envelope of additivity | – | T/C (V/V0 of each group divided by V/V0 of the negative control group) [1]: 0.45
2 | Nc1ccn([C@@H]2O[C@H](CO)[C@@H](O)[C@@H]2O)c(=O)n1 [Cytarabine, cytarabine] | – | – | Combination effect of test compound and each compound [3]: Envelope of additivity
3 | CC(=O)O[C@@]12CO[C@@H]1C[C@H](O)[C@@]1(C)C(=O)[C@H](O)C3=C(C)[C@@H](OC(=O)[C@H](O)[C@@H](NC(=O)OC(C)(C)C)c4ccccc4)C[C@@](O)([C@@H](OC(=O)c4ccccc4)[C@H]21)C3(C)C [Docetaxel, docetaxel] | – | Envelope of additivity | –
4 | C#Cc1cccc(Nc2ncnc3cc(OCCOC)c(OCCOC)cc23)c1 [Erlotinib, erlotinib] | – | Sub-additive | –
5 | COc1cc2ncnc(Nc3ccc(F)c(Cl)c3)c2cc1OCCCN1CCOCC1 [Gefitinib, gefitinib] | – | Envelope of additivity | T/C (V/V0 of each group divided by V/V0 of the negative control group) [5]: 0.74
6 | Cc1ccc(NC(=O)c2ccc(CN3CCN(C)CC3)cc2)cc1Nc1nccc(-c2cccnc2)n1 [Imatinib, imatinib] | – | – | Combination effect of test compound and each compound [6]: Sub-additive
7 | CS(=O)(=O)CCNCc1ccc(-c2ccc3ncnc(Nc4ccc(OCc5cccc(F)c5)c(Cl)c4)c3c2)o1 [Lapatinib, lapatinib] | – | – | Combination effect of test compound and each compound [7]: Envelope of additivity
8 | Nc1cccc2c1CN(C1CCC(=O)NC1=O)C2=O (stereo not shown) [Lenalidomide, lenalidomide] | Envelope of additivity | – | –
9 | N[C@@H](Cc1ccc(N(CCCl)CCCl)cc1)C(=O)O [Melphalan, melphalan] | Envelope of additivity | – | T/C (V/V0 of each group divided by V/V0 of the negative control group) [8]: 0.63
10 | CC(=O)O[C@H]1C(=O)[C@@]2(C)[C@H]([C@H](OC(=O)c3ccccc3)[C@]3(O)C[C@H](OC(=O)[C@H](O)[C@@H](NC(=O)c4ccccc4)c4ccccc4)C(C)=C1C3(C)C)[C@]1(OC(C)=O)CO[C@@H]1C[C@@H]2O [Paclitaxel, paclitaxel] | – | Envelope of additivity | T/C (V/V0 of each group divided by V/V0 of the negative control group) [9]: 0.094
11 | CNC(=O)c1cc(Oc2ccc(NC(=O)Nc3ccc(Cl)c(C(F)(F)F)c3)cc2)ccn1 [Sorafenib, sorafenib] | – | – | Combination effect of test compound and each compound [10]: Supra-additive
12 | O=C(CCCCCCC(=O)Nc1ccccc1)NO [Vorinostat, vorinostat] | Sub-additive | – | –
